Data reported in patent publication US20160194274A1, “PHENANTHRENE DERIVATIVES FOR USE AS MEDICAMENTS” (VALENTIA BIOPHARMA, priority 2012, published 2016).

Tests used:
[1] = tested on: UGGAA FAM-RNA probe; assay: Gel retardation assay with FAM-UGGAA probe (SCA31); format: binding
Experimental: FIG. 9. VLT002 binding assessment in additional toxic repeats linked to disease through hairpin formation.
Fluorescence Electrophoretic Mobility Shift Assay to test RNA-compound binding. Briefly, an aliquot of carboxyfluorescein (FAM)-CUG10 RNA (DM1, HDL2, SCA8; see FIG. 6) was heated at 70° C. for 5 min and diluted to 300 nM. The binding reaction with compounds was then carried out as described in (Garcia-Lopez A et al. Proc. Natl. Acad. Sci. USA. 108(29):11866-71 (2011)). The reaction mix was loaded onto 8% polyacrylamide nondenaturing gels, and electrophoresis was conducted at 4° C. in TB 1× for approximately 30 min at 240V, followed by fluorescence visualization. Quantification of the free RNA band intensity was carried out using the ImageJ software. A non-linear regression analysis was used to calculate EC50, based on a total of three experimental replicates. Same approach was developed with (FAM)-CCUG8 (DM2), CAG10 (SCA3), CGG10 (FXTAS), GGGGCC5 (ALS/FSD), UGGAA6 (SCA31) probes (see FIG. 9).

[2] = tested on: Clcn1 protein; assay: Immunofluorescent detection of Clcn1 protein in HSA LR mouse quadriceps; format: in vivo; settings: 100 μg
Experimental: FIG. 8. Recovering of disease phenotypes (molecular, histological and functional) in in vivo DM1 mice (HSA^LR). Upper section: VLT002 and VLT025 suppressed splicing defects in DM1 mouse skeletal muscles. VLT002 (10 μg) and VLT025 (100 μg) were intramuscular injected in the right tibialis anterior (TA) and left quadriceps (Q), respectively, of HSA^LR mice that expressed 300 CTG repeats. […] All graphs show the mean and SEM from VLT002 and VLT025-responsive animals. Middle section: Immunofluorescent detection of trans-membrane Clcn1 protein (cell outlines in gray) in quadriceps sections of no-DM1 mouse (control) and HSA^LR mice without treatment (10150.5 QD-DMSO treated) and after VLT025 treatment (10150.5 QI).
Also, an immunohistochemistry approach was used to measure ClC-1 protein levels (see FIG. 8 middle) in mouse tissues (skeletal muscle). Briefly, frozen sections of tibialis anterior & quadriceps muscle were prepared for routine immunostaining by using antibody against the ClC-1 protein (Alpha Diagnostic, San Antonio, Tex.). Primary antibody concentration used was 1:50 for ClC-1. Secondary antibody was goat anti-rabbit Alexa Fluor 488 and 546 (Invitrogen) at 1:400. Stacks of Z plane images were processed by using a blind point spread function. […]

CN(C)CCc1cc2c(c3c1ccc1ccccc13)OCO2 [VLT002, Stephenanthrine]
binding to UGGAA (SCA31) probe [1]: caused retention of the complex in the well

C[N+](C)(C)CCc1cc2c(c3c1ccc1ccccc13)OCO2 [VLT025]
Clcn1 fluorescent signal vs DMSO-treated contra-lateral limb [2]: significantly stronger
